ChEMBL document CHEMBL3507680, “University of Dundee, Gates Library screen for HepG2 cell viability”

Experiment: Human HepG2 cell viability assay in 384 well format
Assay type: toxicity, cell-based
Parameters: dose 125 nL, time 70.5 hour; concentration not given beside the values
Settings: HepG2 cells, read-out: Inhibition

Compound	cytotoxicity at 70.5 h [%]
Nc1nccnc1C(=O)N1CCN(Cc2cccc3ccccc23)CC1	28
CN(C)c1cc(C(=O)NCC2(c3cccc(F)c3)CCOCC2)ccn1	-4.88
Cc1nc(CNCC(O)COc2ccc3c(c2)OCO3)cs1 (stereo not given)	1.9
Cn1cccc(NC(=O)COc2ccc(Br)cc2)c1=O	21.8
CN(C)S(=O)(=O)Nc1ccc(-n2nccc2C(F)(F)F)cc1	6.87
Nc1nccnc1C(=O)N1CC(OCc2cccc3ccccc23)C1	9.66
Cc1nnc2ccc(N3CCC4(CCOC4)C3)nn12 (stereo not given)	-3.17
NS(=O)(=O)CCN1CCOC(c2ccsc2)C1 (stereo not given)	1.05
O=C1CCC(=O)N1CCN1CCOC(c2ccsc2)C1 (stereo not given)	3.03
Cn1cnn(Cc2c(F)cccc2Br)c1=O	24.5
NC(=O)N1CC(OCc2cccc3ccccc23)C1	2.87
N#Cc1ccccc1N1CCC(Nc2nccnc2C#N)CC1	0.142
CCS(=O)(=O)CCN(CC1CCCO1)C1CCCC1 (stereo not given)	-2.46
Cc1cc(CN(C)Cc2ncc(-c3cccs3)o2)no1	0.203
CCc1nc(CN(C)Cc2ncc(-c3cccs3)o2)cs1	-1.61
COC(=O)N1CCC(NC2CCSCC2)C1 (stereo not given)	0.96
Cc1csc(C2CCCCN2C(=O)CCn2cncn2)n1 (stereo not given)	33.9
CC(C)C(=O)NCCNC(=O)C(C)OCC(F)(F)F (stereo not given)	-8.9
O=C(NCC(O)c1ccccc1C(F)(F)F)c1cccnc1 (stereo not given)	-11
CCN(CC)Cc1ccc(C(=O)NC2CCc3ccccc32)o1 (stereo not given)	21.6
CC(=O)N1Cc2ccccc2CC1C(=O)Nc1ccc(C)cn1 (stereo not given)	-15.7
CS(=O)(=O)N1CCN(c2cc(N3CCCC3CO)ncn2)CC1 (stereo not given)	-7.63
O=C(CN1CCCC(c2ccn[nH]2)C1)N1CCCc2ccccc21 (stereo not given)	15.3
CN(C)CC(=O)N1CCN(c2cc(N3CCCC3CO)ncn2)CC1 (stereo not given)	-6.08

Compound	cytotoxicity at 70.5 h [%]
CSc1nsc(NC(=O)N(C)Cc2ccc3c(c2)OCO3)n1	-8.04
COC(=O)c1ccc(CCn2cnc(C#N)n2)cc1	13.2
Cc1cc(S(=O)(=O)N(CCO)C2CC2)ccc1F	-2.56
CS(=O)(=O)CC1(CNc2c(C#N)cnc3ccc(Cl)cc23)CC1	-5.19
CN(C)CCC1CCN(c2cc(N3CCCC3CO)ncn2)CC1 (stereo not given)	11.7
CCC1COCCN1C(=O)NCc1nccn1CC(C)C (stereo not given)	-15.6
CCC1COCCN1C(=O)NCc1nccn1CCc1ccccc1 (stereo not given)	-5.72
O=C(NCc1nccs1)N1CCOC(c2ccccc2Cl)C1 (stereo not given)	10.9
CN(Cc1cccc(OC(F)(F)F)c1)Cc1cnn(C)c1	-12.4
Cc1cc(C2CCCN(CCC(=O)N3CCc4ccccc43)C2)n[nH]1 (stereo not given)	-4.23
CC(C)N(Cc1ccccn1)C(=O)CCOc1cccc(F)c1	-4.61
CCc1ccc(CCn2cnc(C#N)n2)cc1	-7.83
CN(C)C(=O)N1CCN(c2cc(N3CCCC3CO)ncn2)CC1 (stereo not given)	-4.25
CC(SCC(=O)N(C)CC(=O)NC1CC1)c1cc(F)ccc1F (stereo not given)	14.2
Cc1nc(CN(CCS(C)(=O)=O)C(C)(C)C)no1	42.5
O=C(COCC1CC1)Nc1ncccc1I	2.42
CCOCCN1CCN(c2ccc(CN(C)C)cn2)CC1	-5.47
COc1ccc(C(NCc2cccc(C#N)c2)C(C)C)cc1 (stereo not given)	5.48
O=C(COCC1CC1)Nc1ncccc1O	-6.89
CC1CCN(C(=O)C(C)N2CCN(c3nccs3)CC2)CC1 (stereo not given)	-7
Cc1cc(CN(C)C(=O)C2CC(c3cccc(F)c3)=NO2)no1 (stereo not given)	-10.1
O=C(Nc1ccc2c(c1)C(=O)NC2)c1ccc(S(=O)(=O)C(F)(F)F)cc1	-2.46
CCCNC(=O)C1CCN(CC(O)c2ccccc2C(F)(F)F)CC1 (stereo not given)	0.668
CCOc1ncccc1NC(=O)N1CCC(n2cncn2)CC1	-8.07

Compound	cytotoxicity at 70.5 h [%]
CS(=O)(=O)Nc1cccc(C(=O)Nc2ccc3c(c2)C(=O)NC3)c1	-6.35
CC(=O)NCc1ccc(C(=O)Nc2ccc3c(c2)C(=O)NC3)cc1	-2.55
O=C1C(n2nnc(-c3ccsc3)n2)CCN1CC(F)(F)F (stereo not given)	-11.5
CCn1cc(S(=O)(=O)N2CCCC2c2ccc(C)o2)cn1 (stereo not given)	2.79
CC(c1ccc(-n2cncn2)cc1)N(C)Cc1ccccn1 (stereo not given)	-7.98
COCCCn1ccc(NCc2ccc(NC(C)=O)cc2)n1	-6.7
CC(=O)Nc1ccc(CNc2ccn(Cc3ccccc3)n2)cc1	-3.05
CN(Cc1cccc(C#N)c1)C(=O)C1CC(c2cccc(F)c2)=NO1 (stereo not given)	-6.75
CC(OCC1CC1)C(=O)Nc1ncccc1I (stereo not given)	-6.4
Cc1cc(C)n(-c2ccc(C(=O)NCC(c3cccs3)N(C)C)cc2)n1 (stereo not given)	-4.5
CCCN(CCC)C(=O)CN(C)Cc1cnc(C)s1	3.46
Cc1nc(C)c(C(=O)N2CCN(CCOc3ccccc3C)CC2)o1	-8.43
CCCC(=O)N1CCCN(C(=O)c2oc(C)nc2C)CC1	-4.74
Cc1nc(CN(CCS(C)(=O)=O)C(C)C)no1	-5.83
Cc1cc(C(=O)NC2(c3ccc(Br)cc3)CC2)n(C)n1	6.63
CC(=O)c1cc(C(=O)NC2(c3ccccc3)CCC2)n(C)c1	-6.28
Cc1cc(C)cc(OCCC(=O)NC2CC(=O)N(C)C2)c1 (stereo not given)	-0.646
Cc1ncc(COc2ccc(N(C)S(C)(=O)=O)cc2)s1	3.82
CCC(CC)CS(=O)(=O)NC(=O)C1CCCC1	26.6
Cc1nc(C)c(COc2ccc(N(C)S(C)(=O)=O)cc2)s1	2.74
NC(=O)c1ccc(CNC2CCCSC2)cc1 (stereo not given)	-1.72
CS(=O)(=O)c1cccc(S(=O)(=O)NC(=O)CC2CCCCC2)c1	-4.36
CC(=O)Nc1cc(CN(C)C)ccc1C	-6.9
CS(=O)(=O)c1cccc(S(=O)(=O)NC(=O)CC2CCCC2)c1	-3.3

Compound	cytotoxicity at 70.5 h [%]
O=C(Nc1ccccc1)c1ccc(NCc2ccncc2)nn1	-5.4
CN(c1ccc(OCc2cnc(Cl)s2)cc1)S(C)(=O)=O	5.74
CS(=O)(=O)c1cccc(S(=O)(=O)NC(=O)CCC2CCCCC2)c1	-7.19
CC1(CCNC(=O)NCc2ccsc2)OCCO1	-6.29
CCC(C)CS(=O)(=O)NC(=O)C1CCC1 (stereo not given)	21.3
FC(F)(F)c1cccc(C2(CNCc3cc[nH]c3)CCOCC2)c1	-3.76
CCC(CC)CS(=O)(=O)NC(=O)C1CCC1	-4.87
CC(=O)c1cccc(S(=O)(=O)N2CCC(c3n[nH]c(C)n3)CC2)c1	2.75
OC1(CN2CCC(Cc3ccccc3)CC2)CCC1	-4.49
COc1cccc(S(=O)(=O)NC(=O)CC2CCCC2)c1	-3.66
Cc1cc(C)n(C2CN(CCc3ccccn3)C2)n1	-11.1
CCN(C(=O)CCOC)C(c1ccc(Cl)cc1)c1ccccn1 (stereo not given)	-6.55
O=C(COc1ccccc1NCc1ccoc1)N1CCOCC1	-18.1
CCCn1nnnc1COc1ccc(C(=O)OC)cc1OC	-16.9
Cc1nn(C)c2ncc(CN3CCN(c4ncccn4)CC3)cc12	-21.9
CCC(C)NS(=O)(=O)c1ccc(C(=O)NC2(C#N)CCC2)cc1 (stereo not given)	39.3
c1ccc(CCN2CC(n3cccn3)C2)nc1	-15.6
CC(C)C(C(=O)N1CCN(c2ccncc2)CC1)n1cncn1 (stereo not given)	-7.42
CN(C(=O)c1cccc(C(=O)NCC(F)(F)F)c1)c1ccccc1	10.6
Fc1ccc(CN2CCCC(Cn3cncn3)C2)c2ncccc12 (stereo not given)	-5.13
CC(C)(C)c1ccc(C2(C(=O)NCCS(N)(=O)=O)CC2)cc1	-9.31
Cc1cc(CNC(=O)NC(C)c2ccc(N3CCOCC3)cc2)no1 (stereo not given)	-5.55
Cc1ccc(C(C)NC(=O)Cc2c(C)nc3c(c2C)c(=O)[nH]n3C)o1 (stereo not given)	-4.59
Cc1n[nH]cc1CNc1ccc2c(c1)N(C(=O)OC(C)(C)C)CCC2	-5.44

Compound	cytotoxicity at 70.5 h [%]
c1cnnc(N2CCCC(NCc3nc(C4CC4)no3)C2)c1 (stereo not given)	-1.23
CN(Cc1cccc(F)c1)C(=O)CN1CCCCC1Cn1cncn1 (stereo not given)	-9.08
CCN(Cc1nc(C(C)C)no1)Cc1cccs1	-10.8
CN(Cc1ccc(C#N)cc1)Cc1noc(C(C)(C)C)n1	-10.4
CCCS(=O)(=O)NCc1cccnc1OCC	-6.74
CCc1nc(C2CCCN2Cc2nc(C3CC3)no2)no1 (stereo not given)	-5.95
O=C(Cc1ccccc1F)N1CCN(C(=O)c2cccc(F)c2)CC1	38
COc1ccc(CS(=O)(=O)CC(=O)NCc2ccccc2F)cc1F	-11.2
O=C(COc1cccc2c1CCC2=O)NCc1ccccc1F	-2.34
Cc1cc(NS(=O)(=O)c2ccccc2F)ccc1-n1cccc1C(=O)O	-1.31
O=C(c1ccco1)N1CCCC1C1CCN(Cc2ccccc2)CC1 (stereo not given)	-5.08
O=C(CN1CCC(C(=O)c2cc(F)ccc2F)CC1)NC1CCCC1	24.6
CCCC(C)C(=O)NCc1cn2cc(Br)ccc2n1 (stereo not given)	-7.73
COc1cccc(CNC(=O)C(c2cccc(F)c2)N2CCOCC2)c1 (stereo not given)	10.7
Cc1ccc(CN(C)C(=O)CN2CC(n3cccn3)C2)o1	23.5
Cc1nc(NC(=O)CNC(=O)c2c(F)cccc2Cl)n[nH]1	-6.51
CN(C)c1cc(C(=O)NCCc2n[nH]c(=O)[nH]2)ccn1	-5.07
CNC(=O)Nc1cc(-c2ccc(Br)cc2)nn1CCO	-0.486
Cn1cccc1CNC(=O)N(CCO)C1CCCc2ccccc21 (stereo not given)	7.35
O=C(Nc1nc2c(s1)CCC2)c1cccnc1N1CCOCC1	-0.827
COc1cc(C(=O)N(Cc2ccco2)C2CC2)cc2c1OCCO2	-0.578
O=C(NCC(O)c1ccc(F)c(F)c1)c1cccnc1O (stereo not given)	-3.92
NC(=O)c1ccc(CNC2CC2)cc1	16
FC(F)(F)c1cccc(-c2c[nH]c(C3CCCN3)n2)c1 (stereo not given)	1.03
